Consider 37 molecules from the RepoRT retention time repository.

The data set can be described thus: HILIC, Waters Atlantis Premier BEH Z-HILIC, 100 × 2.1 mm, 1.7 µm, 40 °C, 0.15 mL/min, estimated dead time 1.5 min; A: water + 20 mM ammonium carbonate + 5 µM medronic acid; B: 10% water + 90% acetonitrile + 2 mM ammonium carbonate + 0.5 µM medronic acid; gradient (min/%B) 0/95 18/55 18.1/20 21.5/20 22/95 23.5/95 25.5/95. Conditions: stereoisomer not certain.
Consider `C=C(OP(=O)(O)O)C(=O)O` [PEP], for which the LC retention time was 13.3 min. Take `O=C(CO)C(O)C(O)C(O)COP(=O)(O)O` (configuration not stated) [Fructose 6-phosphate]: the LC retention time was 11.3 min. In the case of `Nc1ncnc2c1ncn2C1OC(CO)C(O)C1O` (configuration not stated) [Adenosine], the LC retention time is 4.11 min.

For the molecule `CC(O)C(=O)O` (configuration not stated) [Lactic Acid], the LC retention time was 3.43 min. The figure for `CC(=O)NC1C(OP(=O)(O)OP(=O)(O)OCC2OC(n3ccc(=O)[nH]c3=O)C(O)C2O)OC(CO)C(O)C1O` (configuration not stated) [UDP-GlcNAc] is 9.78 min. With `OCC1OC(O)C(O)C(O)C1O` (configuration not stated) [Hexose], the LC retention time was 7.63 min. `Nc1nc2c(ncn2C2OC(COP(=O)(O)OP(=O)(O)OP(=O)(O)O)C(O)C2O)c(=O)[nH]1` (configuration not stated) [GTP]: the LC retention time is 15.7 min. Consider `O=P(O)(O)OCC(O)CO` (configuration not stated) [Glycerol-3-phosphate], for which the LC retention time is 10.2 min. `O=C(O)CCCCC1SCC2NC(=O)NC21` (configuration not stated) [Biotin]: the LC retention time was 4.5 min. For `O=P(O)(O)OCC1OC(O)(COP(=O)(O)O)C(O)C1O` (configuration not stated) [Fructose-1,6-bisphosphate], the LC retention time is 15.5 min. Regarding `NC(=O)C1=CN(C2OC(COP(=O)(O)OP(=O)(O)OCC3OC(n4cnc5c(N)ncnc54)C(O)C3O)C(O)C2O)C=CC1` (configuration not stated) [NADH], the LC retention time is 8.54 min. The figure for `O=C1CC(C(=O)O)NC(=O)N1` (configuration not stated) [dihydroorotic acid] is 4.59 min; for `NC(CCC(=O)O)C(=O)O` (configuration not stated) [Glutamic acid] it is 9.67 min. With `NC(=O)CCC(N)C(=O)O` (configuration not stated) [Glutamine], the LC retention time is 10.3 min. Take `Cc1cc2nc3c(=O)[nH]c(=O)nc-3n(CC(O)C(O)C(O)COP(=O)(O)OP(=O)(O)OCC3OC(n4cnc5c(N)ncnc54)C(O)C3O)c2cc1C` (configuration not stated) [FAD]: the LC retention time is 7.24 min. For `O=C(O)CC(O)(CC(=O)O)C(=O)O` [Citric acid], the LC retention time was 13.8 min. Consider `NC(=O)c1ccc[n+](C2OC(COP(=O)(O)OP(=O)(O)OCC3OC(n4cnc5c(N)ncnc54)C(OP(=O)(O)O)C3O)C(O)C2O)c1` (configuration not stated) [NADP], for which the LC retention time was 13.2 min. For the molecule `O=C(O)CCC(=O)O` [Succinic Acid], the LC retention time is 9.51 min. As for `NCCCCC(N)C(=O)O` (configuration not stated) [Lysine], the LC retention time was 19.5 min.

Regarding `NC(=O)c1ccc[n+](C2OC(COP(=O)(O)OP(=O)(O)OCC3OC(n4cnc5c(N)ncnc54)C(O)C3O)C(O)C2O)c1` (configuration not stated) [NAD], the LC retention time is 10.2 min. Regarding `CCC(C)C(N)C(=O)O` (configuration not stated) [Isoleucine], the LC retention time was 6.42 min. Regarding `CC(C)CC(N)C(=O)O` (configuration not stated) [Leucine], the LC retention time was 6.03 min. Take `O=C(O)CCC(=O)C(=O)O` [2-Oxoglutaric acid]: the LC retention time was 8.94 min. In the case of `O=C(CO)COP(=O)(O)O` [Triose phosphate], the LC retention time was 10.2 min.

On to `O=C(O)CCC(O)C(=O)O` (configuration not stated) [2-hydroxy glutaric acid], for which the LC retention time is 9.45 min. Regarding `NC(N)=NCCCC(N)C(=O)O` (configuration not stated) [Arginine], the LC retention time is 19.3 min. As to `O=C(O)C(CO)OP(=O)(O)O` (configuration not stated) [Phosphoglyceric acid A], the LC retention time is 12.4 min. For `O=C(O)CC(C(=O)O)C(O)C(=O)O` (configuration not stated) [Isocitric acid], the LC retention time was 13.5 min. With `CC(=O)SCCNC(=O)CCNC(=O)C(O)C(C)(C)COP(=O)(O)OP(=O)(O)OCC1OC(n2cnc3c(N)ncnc32)C(O)C1OP(=O)(O)O` (configuration not stated) [Acetyl-CoA], the LC retention time is 10.1 min. On to `NC(=O)C1=CN(C2OC(COP(=O)(O)OP(=O)(O)OCC3OC(n4cnc5c(N)ncnc54)C(OP(=O)(O)O)C3O)C(O)C2O)C=CC1` (configuration not stated) [NADPH], for which the LC retention time was 13.7 min.

For `CCC(=O)OC(CC(=O)[O-])C[N+](C)(C)C` (configuration not stated) [carnitine-C3], the LC retention time was 6.52 min. To `Nc1ncnc2c1ncn2C1OC(COP(=O)(O)O)C(O)C1O` (configuration not stated) [AMP] belongs 9.36 min.

Regarding `Nc1ncnc2c1ncn2C1OC(COP(=O)(O)OP(=O)(O)O)C(O)C1O` (configuration not stated) [ADP], the LC retention time was 11.3 min. The figure for `Nc1ncnc2c1ncn2C1OC(COP(=O)(O)OP(=O)(O)OP(=O)(O)O)C(O)C1O` (configuration not stated) [ATP] is 13.2 min. On to `CC(C)(COP(=O)(O)OP(=O)(O)OCC1OC(n2cnc3c(N)ncnc32)C(O)C1OP(=O)(O)O)C(O)C(=O)NCCC(=O)NCCS` (configuration not stated) [CoenzymeA], for which the LC retention time is 11.8 min.

Regarding `C[N+](C)(C)CC(O)CC(=O)[O-]` (configuration not stated) [Carnitine], the LC retention time is 9.85 min. The figure for `O=P(O)(O)OCC1OC(O)C(O)C(O)C1O` (configuration not stated) [Glucose-6-phosphate] is 12.3 min.
